Test results taken from the SangsterLogP compilation.

Assay: method code SF, from Hansch, C. & Leo, A. (1987). Log P database [Dataset]. Pomona College Medicinal Chemistry Project.

COc1ccc(C(=O)N(C)C)cc1 gave a logP of 0.96.

For CCOC(=O)c1ccccn1, the logP was 0.88.

Work on CCC1(C(C)CC(C)O)C(=O)NC(=O)NC1=O (stereo not drawn) yielded a logP of 0.35.

CCOC(=O)C(=Cc1ccccc1)C(=O)OCC showed a logP of 3.13.

In the case of Cc1ccc2[nH]c(CCc3nc4cc(C)ccc4[nH]3)nc2c1, the logP is reported as 1.39.

O=c1cnc2ccccc2[nH]1 showed a logP of 0.8.

Work on CSc1cccc(NC(C)=O)c1 yielded a logP of 2.14.

In the case of CC(=O)c1ccccc1OC(=O)N(C)C, the logP is reported as 0.93.

With CCN(CC)C(C)CN1c2ccccc2Sc2ccccc21 (stereo not drawn) the logP was 4.77.

In the case of COc1cccc(NC(C)=O)c1, the logP is reported as 1.28.

Work on CCOP(=O)(OCC)Oc1ccc(SC)c(C)c1 yielded a logP of 3.28.

Compound CCCCN(C)N=Nc1cn([C@@H]2O[C@H](CO)[C@@H](O)[C@H]2O)c(=O)n(C)c1=O has a logP of -0.45.

Compound Nc1nc(=O)c2[nH]nnc2[nH]1 has a logD (pH 4.2) of -0.71.

In the case of Cc1ccc(C(=O)c2ccncc2)cc1, the logP is reported as 2.51.

CCCC=O showed a logP of 0.88.

With CC1=Nc2ccc(C)cc2S(=O)(=O)N1 the logP was 0.81.

Compound c1cncc(CN2CCCCC2)c1 has a logD (pH 11.0) of 1.49.

CN(C)CCCCc1cccnc1 gave a logD (pH 11.0) of 1.49.

In the case of Cc1cccc(C)c1[N+](=O)[O-], the logP is reported as 2.95.

For COC(=O)c1ccccc1C(=O)O, the logD (pH 1.0) was 1.13.

In the case of COc1cc(C=O)ccc1OCCOC(=O)c1cccc(Cl)c1, the logP is reported as 3.67.

Work on O=P1(NCCCl)OCCCN1CCCl (stereo not drawn) yielded a logP of 0.86.

CSCCC(=O)N(C)c1ccc(S(=O)(=O)N(C)C)cc1 gave a logP of 0.99.

In the case of C#CCO, the logP is reported as -0.38.

With O=Nc1ccc(O)c2ccccc12 the logP was 2.27.

In the case of CC(C)c1cccc(O)c(=O)c1, the logD (pH 5.0) is reported as 1.82.

In the case of O=C(c1ccccc1)c1cccc(NS(=O)(=O)C(F)F)c1, the logD (pH 5.4) is reported as 2.86.

Work on O=C(NP(=O)(N1CC1)N1CC1)c1cc(I)ccc1I yielded a logP of 1.35.

In the case of O=CC=Cc1ccco1, the logP is reported as 1.15.

Work on Cc1cccc([N+]([O-])=NC#N)c1 yielded a logP of 2.49.

For CC1=Nc2c(Br)cc(Cl)cc2S(=O)(=O)N1, the logP was 1.65.

With O=[N+]([O-])CCc1ccccc1 the logP was 2.08.

CCOP(=O)(OCC)SCS(=O)CC (stereo not drawn) showed a logP of 1.69.

In the case of CCC(C)NC(=O)C=C(Cl)c1ccc(Cl)cc1 (stereo not drawn), the logP is reported as 3.61.

With CCC(C)c1ccccc1O (stereo not drawn) the logP was 3.27.

Compound CCC(O)CC has a logP of 1.21.

Work on c1cscn1 yielded a logP of 0.44.

With C=CCn1c(C)c(N(C)C)c(=O)n(-c2ccccc2)c1=O the logD (pH 7.4) was 1.44.

O=C(O)c1ncccc1O gave a logD (pH 2.0) of -1.27.

FC(F)Cl showed a logP of 1.08.

With CCCC1CNC(C(=O)NC(C(C)O)C2OC(SC)C(O)C(O)C2O)C1 (stereo not drawn) the logD (pH 12.3) was 0.04.

For CC(=O)c1ccco1, the logP was 0.52.

In the case of COc1cc(OCCOC(=O)c2ccccc2)ccc1C=NO, the logP is reported as 2.94.

Compound CN(C)/N=N/c1cccc(Cl)c1 has a logP of 3.44.

CCC(=O)OCCOc1ccc(C=O)cc1OC gave a logP of 1.33.

In the case of COc1ccc2[nH]c(CCCc3nc4cc(OC)ccc4[nH]3)nc2c1, the logP is reported as 1.75.

With CNC(=O)Oc1ccccc1C1OCCO1 the logP was 0.67.

Work on CNc1nccn2cc(-c3ccc(S(C)=O)cc3OC)nc12 (stereo not drawn) yielded a logP of 1.88.

In the case of CC(=O)C(C)=O, the logP is reported as -1.34.

For CCOC(=O)C(=Cc1cccc(F)c1)C(=O)OCC, the logP was 3.19.

In the case of O=[N+]([O-])c1ccc(C=Cc2nccs2)o1, the logP is reported as 1.97.

CCOC(=O)C(=Cc1ccc(OC)cc1OC)C(C)=O showed a logP of 2.41.

In the case of NC(=O)C(Cl)(Cl)Cl, the logP is reported as 1.04.

Compound CNC(=S)NCc1ccccc1 has a logP of 1.35.

Compound CC1=Nc2ccccc2S(=O)(=O)N1 has a logP of 0.29.

Cc1c(N2CCCC2)c(=O)n(-c2ccccc2)c(=O)n1C showed a logD (pH 7.4) of 2.26.

CCOC(=O)C(=Cc1ccc(F)cc1)C(=O)OCC gave a logP of 3.1.

Compound CC(=O)Nc1ccc(Cl)c(Cl)c1 has a logP of 2.96.

In the case of CN(C)C(=O)Oc1ccccc1, the logP is reported as 1.56.

c1ccc2c(c1)CCc1ccccc1NC2 gave a logP of 2.82.

In the case of CCCCC1OC(=O)c2cc(N)ccc21 (stereo not drawn), the logP is reported as 2.86.

With O=C(O)c1ccncc1 the logP was -0.57.

With N#CSCc1ccccc1 the logP was 1.99.

Compound O=C(NO)c1ccccc1 has a logP of 0.26.

COc1cc(C=NO)ccc1OCCO showed a logP of 0.82.

For CC1(C)O[C@@H]2C[C@H]3[C@@H]4CCC5=CC(=O)C=C[C@]5(C)[C@@]4(F)[C@@H](O)C[C@]3(C)[C@]2(C(=O)CO)O1, the logP was 2.53.

With COc1ccc2c(c1)N(CCCN(C)C)c1ccccc1S2 the logP was 4.46.

For CNC(=O)ON=CC(C)(C)[N+](=O)[O-], the logP was 0.36.

Compound CN(C=O)c1ccc(S(=O)(=O)N(C)C)cc1 has a logP of 0.4.

For CCOP(=S)(OCC)SCS(=O)(=O)C(C)(C)C, the logP was 2.48.

CON(C)C(=O)Nc1ccc2c(c1)Cc1ccccc1-2 showed a logP of 3.67.

In the case of COc1ccc(NC(C)=O)cc1, the logP is reported as 1.1.

Compound CCCC(C(=O)OCCN(CC)CC)(c1ccccc1)c1ccccc1 has a logP of 4.65.

With CCN(CC)c1ccc(/N=N/c2ccc(Br)cn2)c(O)c1 the logP was 4.23.

With N#CN=[N+]([O-])c1cccc(F)c1 the logP was 1.85.

Compound COc1ccc(Cc2cnc(N)nc2N)c(OC)c1OC has a logD (pH 13.0) of 1.52.

With CCN(CC)CC(O)c1ccccc1 (stereo not drawn) the logD (pH 13.0) was 2.02.

CN(C)/N=N/c1ccccc1C(N)=O gave a logD (pH 7.4) of 1.73.

NCc1ccc([N+](=O)[O-])cc1 showed a logD (pH 13.0) of 1.06.

In the case of O=C(OC(=O)c1ccccc1)c1ccccc1, the logP is reported as 2.26.

Work on CCNc1nc(NC(C)C)nc(SC)n1 yielded a logP of 2.98.

With CCOS(=O)(=O)OCC the logP was 1.14.

For O=[N+]([O-])c1ccc(N2CCCCC2)cc1, the logP was 3.26.

Compound O=C(Nc1ccccc1)c1cccnc1 has a logP of 1.73.

In the case of CCN(CC)c1c(C)n(C)c(=O)n(-c2ccccc2)c1=O, the logD (pH 7.4) is reported as 2.11.

CNC=CCCc1cccnc1 gave a logD (pH 11.0) of 1.13.

Work on O=C(O)c1cccc(CSc2ccccc2)c1O yielded a logP of 4.28.

In the case of CCOCCOC(=O)C(C#N)=CC(C)(C)NCc1ccc(Cl)cc1, the logP is reported as 4.05.

C/N=C/c1ccccc1 showed a logP of 1.64.

O=Cc1cccc([N+](=O)[O-])c1 showed a logD (pH 7.0) of 1.47.

Cn1nnnc1SCc1ccccc1 showed a logP of 1.63.

In the case of O=C(O)c1ccsc1, the logP is reported as 1.5.

For Clc1ccc2[nH]c(CCCc3nc4cc(Cl)ccc4[nH]3)nc2c1, the logP was 1.88.

COCCN(N=Nc1[nH]cnc1C(N)=O)C(C)(C)C showed a logD (pH 4.2) of 1.14.

In the case of N#CSc1ccccc1, the logP is reported as 2.54.

Compound CCOC(=O)C(=Cc1ccc(O)c(OC)c1)C(=O)OCC has a logP of 2.89.

With c1ccc(-n2cccn2)cc1 the logP was 2.2.

With Cc1ccc2cccnc2c1 the logP was 2.47.

Compound NC(=O)c1ccc(N)cc1 has a logP of -0.41.

CCc1cccs1 gave a logP of 2.87.

Work on Cc1ccccc1/C=N/O yielded a logP of 2.53.

With COc1cc(OC)c(OC)cc1CC(C)N (stereo not drawn) the logP was 1.74.

With c1ccc(-c2ccc(C(c3ccccc3)n3ccnc3)cc2)cc1 (stereo not drawn) the logP was 4.77.

Work on CC(C)(O)C(Cl)(Cl)Cl yielded a logP of 2.03.

Work on N=c1ccn2c(n1)OC1C(O)C(CO)OC12 (stereo not drawn) yielded a logD (pH 11.0) of -2.37.

With CCCCCCC1OC(=O)c2ccccc21 (stereo not drawn) the logP was 3.55.

For N#Cc1ccco1, the logP was 0.96.

With CCOP(=O)(OCC)Oc1ccc(SC)cc1 the logP was 2.79.

In the case of CC(=O)OCC(COC(C)=O)OC(C)=O, the logP is reported as 0.25.

COC(=O)C=Cc1ccccc1 showed a logP of 2.62.

In the case of O=C(Nc1ccc(Cl)c(Cl)c1)C1CCCCC1, the logP is reported as 4.72.

For C=C(C=O)CC, the logP was 1.24.

In the case of CS(=O)(=O)F, the logD (pH 1.0) is reported as 0.55.

Cc1csc(N=C(N)N)n1 gave a logP of 1.24.

In the case of Oc1ccccc1/C=N/c1ccccc1, the logP is reported as 3.09.

Work on COC1=C[C@@]23CCCN2CCc2cc4c(cc2[C@@H]3[C@@H]1O)OCO4 yielded a logP of 0.84.

In the case of CCOC(=O)C(=Cc1ccccc1OC)C(=O)OCC, the logP is reported as 3.29.

O=C(NC(CO)C(O)c1ccc(NC(=O)C2CC2)cc1)C(Cl)Cl (stereo not drawn) gave a logP of 0.75.

For N#Cc1c[nH]c2ccccc12, the logP was 2.32.

CC(=O)OCC1=C(C(=O)O)N2C(=O)C(NC(=O)CSc3cc(Cl)ccc3Cl)C2SC1 (stereo not drawn) gave a logD (pH 3.0) of 1.66.

COC[C@H]1O[C@@H](O)[C@H](NC(=O)N(CCCl)N=O)[C@@H](OC)[C@@H]1OC gave a logP of 0.8.

Compound CCOC(=O)OCC has a logP of 1.21.

In the case of COc1cc2c(c(OC)c1OC)-c1ccc(SC)c(=O)cc1[C@@H](N[C@@H]1O[C@H](CO)[C@@H](O)[C@H](O)[C@H]1O)CC2, the logD (pH 7.4) is reported as 1.25.

In the case of CCC(C)NC(=O)C=C(c1ccc(Cl)cc1)C(C)C (stereo not drawn), the logP is reported as 4.03.

CN(C)c1cnnc(N(C)C)c1 showed a logP of 0.84.

With CCOC(=O)[C@H](O)[C@@H](O)C(=O)OCC the logP was -0.29.

Work on O=C(c1ccccc1)c1cccnc1 yielded a logD (pH 8.0) of 1.88.

Work on CC(=O)Nc1ccc(C(N)=O)cc1 yielded a logP of 0.01.

Compound c1ccc(Sc2ccccc2)cc1 has a logP of 4.45.

CCC(=O)O[C@]1(C(=O)CO)[C@H](C)C[C@H]2[C@@H]3C[C@H](F)C4=CC(=O)C(Cl)=C[C@]4(C)[C@@]3(F)[C@@H](O)C[C@@]21C gave a logP of 2.99.

Work on COP(=O)(NCC(C)C)Oc1cc(Cl)c(Cl)cc1Cl (stereo not drawn) yielded a logP of 3.86.

Cc1c(N2CCCCC2)c(=O)n(-c2ccccc2)c(=O)n1C gave a logD (pH 7.4) of 2.76.

For CC(=O)OC[C@@H](OC(C)=O)[C@@H](OC(C)=O)[C@H](OC(C)=O)[C@H](C=O)OC(C)=O, the logP was 0.63.

For CCOC(=O)CC(=O)C=Cc1cccc(C)c1, the logP was 2.8.

CC1(O)OC(=O)c2ccccc21 (stereo not drawn) showed a logP of 0.81.

Nc1nc(N)c2ncn(COCCO)c2n1 showed a logD (pH 13.0) of -1.06.

CC(=O)Oc1ccccc1Br showed a logP of 2.2.

In the case of CC(=O)Oc1cccc(F)c1, the logP is reported as 1.74.

CCC(CC)C1=Nc2ccccc2S(=O)(=O)N1 showed a logP of 1.88.

With Nc1nc(CON=CC(=O)NC2C(=O)N3C(C(=O)OC4OC(=O)c5ccccc54)=CCSC23)cs1 (stereo not drawn) the logD (pH 6.2) was 1.28.

Work on O=c1[nH]c(=O)c2[nH]cnc2[nH]1 yielded a logP of -0.73.

For Cc1nn(-c2ccccc2)c(C)c1N=O, the logP was 2.28.

With C/N=C(\NC)NC#N the logP was -0.4.

With FC(F)(F)c1ccccc1 the logP was 2.9.

Compound O=C(CNC(=O)c1ccccc1)Oc1cccc(Cl)c1 has a logP of 3.21.

N#CN=[N+]([O-])c1cccc(C#N)c1 gave a logP of 1.15.

Compound O=C(c1ccccc1)C(F)(F)F has a logP of 2.15.

COc1ccc(-c2nc3cnccc3[nH]2)c(OCCCCl)c1 showed a logP of 3.53.

COC(=O)NS(=O)(=O)c1ccc(N)cc1 gave a logP of -0.27.

For COc1cccc2c1C(=O)c1c(O)c3c(c(O)c1C2=O)CC(O)(C(=O)CN1CCOCC1)CC3OC1CC(N)C(O)C(C)O1 (stereo not drawn), the logP was 0.23.

Sc1ncnc2nc[nH]c12 gave a logD (pH 7.4) of 0.01.

In the case of Cc1ccc(Cc2c[nH]c(NCCCCc3ccc(Br)cc3C)nc2=O)cn1, the logP is reported as 3.61.

With CCc1ccc(NC(C)=O)cc1 the logP was 2.11.
